Consider 26 compounds from patent publication US9181182B2, “S1P receptors modulators” (Akaal Pharma PTY LTD, priority 2008, dated 2015).

One assay addresses S1P1 human receptor (Homo sapiens (Human), UniProt P21453). Kind of assay: S1P1 [35S]-GTPgamaS binding assay (agonist activity). The conditions noted are these: for EC50: GTPgamaS binding, agonist; for EC50S1P1/EC50S1P: potency at S1P1 relative to S1P; for Efficacy (% of maximum): S1P1, relative to reference agonist S1P. It counts as biochemical. The protocol: Selected Compounds of the Examples were evaluated at Millipore Corporation, USA, using S1P1 receptor; [^35S]-GTPgamaS binding assay. A [^35S]-GTPgamaS binding assay at Millipore was conducted by GPCR Profiler™ Custom Service Laboratory, Temecula, Calif., Millipore, Inc. to monitor dose-dependent agonist selectivity for selected Examples against the S1P1 receptors. The assay was completed with sample compounds subjected to an eight-point, four-fold dose response curve with starting concentration of 10 μM. Selectivity was determined upon initial addition of compounds followed by a 30 minute incubation at 30° C. Following compound incubation, bounded [^35S]-GTPgamaS was determined by filtration and scintillation counting.
Independently, selected compounds were evaluated for S1P1 and S1P3 agonistic activity. The S1P1 assay system was GTPgama-S35 binding in membranes from CHO K1 cells, expressing S1P1 human receptor. The S1P3 assay system was calcium mobilization in CHO K1 cells expressing S1P3 human receptor. […] Compounds were tested initially at a concentration of 10 μM.

The subject of assay [1] is Human promyelocytic leukemia (HL-60) cells. Kind of assay: Cell viability (growth inhibition) assay, MTS. It counts as cell-based. The conditions noted are these: 50% reduction in cell viability of HL-60 cells, 48 hr incubation. As for the experimental part:
In order to measure the apoptotic effect of compounds on the metabolic activity of viable cells, the following assay was performed on Human promyelocytic leukemia cells. The assay utilises the tetrazolium compound (3-(4,5-dimethylthiazol-2-yl)-5-(3-carboxymethoxyphenyl)-2-(4-sulfophenyl)-2H-tetrazolium, inner salt; (MTS) and an electron coupling reagent (phenazine methosulfate; (PMS). MTS is bioreduced by cells into a formazan product the optical absorbance of which is measured directly from 96 well assay plates. The conversion of MTS into aqueous, soluble formazan is accomplished by dehydrogenase enzymes found in metabolically active cells. The quantity of formazan product as measured by the amount of 490 nm absorbance is directly proportional to the number of living cells in culture.
The assay was based on the National Cancer Institute (NCI) protocol, briefly, cells were grown in RPMI 1640 media supplemented with 10% FCS (foetal calf serum) and kept at 37° C. in a humidified environment with 5% CO2.
For the growth inhibition assay, Human promyelocytic leukemia (HL-60) cells were seeded at a density of 10,000 cells per well in 96 well plates in a volume of 100 μl and allowed to grow for 24 h. Compounds were serially diluted in DMSO at concentrations 100 fold higher than used in the assay (100×). Compounds were freshly prepared for each experiment. The 100× stocks were then diluted to 2× stocks into media and immediately, 100 μl of this 2× stock was added to the cells to create the desired final concentration of drug with a DMSO concentration of 1%. One row of each 96 well plate was treated with DMSO alone as a control. Cells were then incubated for a further 48 hr. Metabolic activity was determined using MTS (Promega) (90% 1.6 mg/ml MTS, 10% 1.6 mg/ml PMS (phenazine methosulfate) made fresh in PBS). 50 μl of this mix was added to all wells of the plates and allowed to incubate for 1.5-2 hr. Plates were shaken gently for about 15 min and absorbance was read on a plate reader at 490 nm. Averages were taken of the readings at each point with standard deviation and plotted using MicroCal Origin.

As usually defined, the EC50 is the concentration giving half of the maximal effect. A lower EC50 goes with higher potency in that assay. As usually defined, the IC50 is the concentration that gives 50% inhibition.

Where a name gives a salt, the structure may show the parent alone. Some results are limits rather than exact numbers.

Chain of S1P1 human receptor (P21453 whole entry): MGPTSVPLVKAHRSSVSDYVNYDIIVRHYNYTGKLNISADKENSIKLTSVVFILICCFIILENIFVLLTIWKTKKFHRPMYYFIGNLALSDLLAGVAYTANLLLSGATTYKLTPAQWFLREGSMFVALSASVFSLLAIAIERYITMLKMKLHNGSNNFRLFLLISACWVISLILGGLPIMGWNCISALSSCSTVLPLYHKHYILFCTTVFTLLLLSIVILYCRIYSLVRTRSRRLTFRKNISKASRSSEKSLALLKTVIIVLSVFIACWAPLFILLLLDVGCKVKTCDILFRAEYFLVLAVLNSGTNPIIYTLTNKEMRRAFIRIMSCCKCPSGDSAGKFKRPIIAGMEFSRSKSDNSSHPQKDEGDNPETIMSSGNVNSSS

On to `COc1ccc(-c2nc(-c3ccc4c(c3)CCN4CC(N)(CO)CO)no2)cc1C12CC3CC(CC(C3)C1)C2` [Example 30], for which, on S1P1 human receptor, the concentration giving a half-maximal response (EC50) is above 55.4 µM and the EC50S1P1/EC50S1P is given as above 1000. Also, half-maximal inhibition in assay [1] (IC50) was put at 3.19 ± 0.26 µM.

At S1P1 human receptor, “2-Amino-2-((5-(5-3-(1-admantyl)-3-methoxyphenyl)-1,2,4-oxadiazol-3-yl)indolin-1-yl)methyl)propane-1,3-diol [Example 33]” had an EC50S1P1/EC50S1P above 1000. The same compound showed an IC50 in assay [1] of 2.91 ± 0.13 µM.

Turning to `CCCCCCCCc1ccc2c(c1)CCN(CC(N)(CO)CO)C2` [Example 10, 2-Amino-2-((6-octyl-3,4-dihydroisoquinolin-2(1H)-yl)methyl)propane-1,3-diol], at S1P1 human receptor, the EC50 is above 0.51 µM and the EC50S1P1/EC50S1P is above 1000. For the same compound, the midpoint of inhibition in assay [1] (Homo sapiens), the IC50, lay at 1.38 ± 0.17 µM.

As to `CC(C)Oc1ccc(CCC(N)(CO)CO)cc1C12CC3CC(CC(C3)C1)C2` [Example 28, 2-Amino-2-(3-1-admantanyl-4-isopropoxyphenethyl)propane-1,3-diol hydrochloride salt], in assay [1], the half-inhibitory concentration (IC50) came out at 1.56 ± 0.37 µM.

For the compound `COc1ccc2c(C(=O)c3cc(OC)c(OC)c(OC)c3)cn(S(=O)(=O)c3ccc(CCC(N)(CO)CO)cc3)c2c1` [Example 13, (1-(4-(3-Amino-4-hydroxy-3-(hydroxymethyl)butyl)phenylsulfonyl)-6-methoxy-1H-indol-3-yl)(3,4,5-trimethoxyphenyl)methanone], the IC50 in assay [1] (Homo sapiens) was determined as 0.44 ± 0.04 µM.

As to `CCOc1ccc(-c2nc(-c3cccc4c3ccn4CC(N)(CO)CO)no2)cc1OCC` [Example 35, 2-Amino-2-((4-(5-(3,4-diethoxyphenyl)-1,2,4-oxadiazol-3-yl)-1H-indol-1-yl)methyl)propane-1,3-diol], at S1P1 human receptor, the midpoint of the response, the EC50, lay at 0.054 µM; the “Efficacy (% of maximum)” value was determined as 106%; the EC50S1P1/EC50S1P is 4.75. The same compound returned an IC50 in assay [1] (Homo sapiens) of 1.7 ± 0.1 µM.

As for `NC(CO)(CO)CN1CCC2CCCCC2C1` (centres unmarked) [Example 62, 2-Amino-2-((octahydroisoquinolin-2(1H)-yl)methyl)propane-1,3-diol], the half-inhibitory concentration (IC50) in assay [1] (Homo sapiens) is above 100 µM.

Regarding `CCCCCCCCc1ccc2c(ccn2CC(N)(CO)CO)c1` [Example 4, 2-Amino-2-((5-octyl-1H-indol-1-yl)methyl)propane-1,3-diol], the 50% inhibitory concentration (IC50) in assay [1] (Homo sapiens) came to 3.58 ± 0.04 µM.

The compound `NC(CO)(CO)CCc1ccc(-c2ccc(O)c(C34CC5CC(CC(C5)C3)C4)c2)cc1` [Example 64, 2-Amino-2-(2-(3′-(1-admantyl)-4′-hydroxybiphenyl-4-yl)ethyl)propane-1,3-diol hydrochloride salt] came in with an IC50 in assay [1] of 3.44 ± 0.12 µM.

Turning to `NC(CO)(CO)CCc1ccc(CCCn2cc(C(=O)C(F)(F)F)c3ccccc32)cc1` [Example 11, 1-(1-(3-(4-(3-amino-4-hydroxy-3-(hydroxymethyl)butyl)phenyl)propyl)-1H-indol-3-yl)-2,2,2-trifluoroethanone], in assay [1] (Homo sapiens), the half-maximal inhibitory concentration (IC50) was found to be 5.54 ± 2.3 µM.

For `CC1(C)C2CCC(CCOc3ccc(CCC(N)(CO)CO)cc3)C1C2.Cl` (centres unmarked) [Example 23, 2-Amino-2-(4-(2-(6,6-dimethylbicyclo[3.1.1]heptan-2-yl)ethoxy)phenethyl) propane-1,3-diol hydrochloride salt], on S1P1 human receptor, the half-maximal effective concentration (EC50) came out at 1.24 µM, the “Efficacy (% of maximum)” value was determined as 72% and the EC50S1P1/EC50S1P is given as 419. In assay [1] (Homo sapiens), this compound registered an IC50 of 2.26 ± 0.68 µM.

The compound `CCCCCCCCc1ccc2c(c1)C(=O)C(=O)N2CC(N)(CO)CO` [Example 5, 1-(2-Amino-3-hydroxy-2-(hydroxymethyl)propyl)-5-octylindoline-2,3-dione] gave an IC50 in assay [1] (Homo sapiens) of 5.72 ± 2.18 µM.

In the case of `NC(CO)(CO)CN1CCc2c(-c3noc(-c4ccc(-c5ccccc5C(F)(F)F)cc4)n3)cccc21` [Example 36, 2-Amino-2-((4-(5-(2′-(trifluoromethyl)biphenyl-4-yl)-1,2,4-oxadiazol-3-yl)indolin-1-yl)methyl)propane-1,3-diol], on S1P1 human receptor, the response was half-maximal at 0.501 µM (EC50), the “Efficacy (% of maximum)” value is given as 99% and the EC50S1P1/EC50S1P was found to be 65. The compound further came in with an IC50 in assay [1] (Homo sapiens) of 1.31 ± 0.35 µM.

On to `COc1cc(CCc2cccc(CCC(N)(CO)CO)c2)cc(OC)c1OC` [Example 21, 2-Amino-2-(3-(3,4,5-trimethoxyphenethyl)phenethyl)propane-1,3-diol], for which inhibition in assay [1] (Homo sapiens) was half-maximal at 28.5 ± 3.21 µM (IC50).

With `CCCCCCCCc1ccc(CNCC(N)(CO)CO)cc1` [Example 31, 2-Amino-2-((4-octylbenzylamino)methyl)propane-1,3-diol], the IC50 in assay [1] (Homo sapiens) was above 10 µM.

Turning to `CCCOc1ccc(-c2nc(-c3cccc4c3CCN4CC(N)(CO)CO)no2)cc1Cl` [Example 50, 2-Amino-2-((4-(5-(3-chloro-4-propoxyphenyl)-1,2,4-oxadiazol-3-yl)indolin-1-yl)methyl)propane-1,3-diol], at S1P1 human receptor, the response was half-maximal at 0.0179 µM (EC50), the “Efficacy (% of maximum)” value was 87% and the EC50S1P1/EC50S1P came out at 1.3. In assay [1] (Homo sapiens), the IC50 came out at 3 ± 0.17 µM.

In the case of `NC(CO)(CO)CCc1ccc(O)c(C23CC4CC(CC(C4)C2)C3)c1` [Example 22, 2-Amino-2-(3-(admantyl)-4-hydroxyphenethyl)propane-1,3-diol hydrochloride salt], in assay [1], inhibition was half-maximal at 10.5 ± 0.4 µM (IC50).

In assay [1], `Cc1ccc(OCCCc2ccc(CCC(N)(CO)CO)cc2)c(C23CC4CC(CC(C4)C2)C3)c1` [Example 29, 2-Amino-2-(4-(3-(2-(1-admanynyl)-4-methylphenoxy)propyl)phenethyl) propane-1,3-diol hydrochloride salt] registered a half-maximal inhibitory concentration (IC50) of 3.94 ± 0.4 µM.

Take `Cc1ccc(-c2ccc(CCC(N)(CO)CO)cc2)cc1` [Example 18, 2-Amino-2-(2-(4′-methylbiphenyl-4-yl)ethyl)propane-1,3-diol]: it took 7.07 ± 0.23 µM to reach half-maximal inhibition in assay [1] (Homo sapiens) (IC50).

Take `CC(C)Oc1cc2c(cc1C13CC4CC(CC(C4)C1)C3)CN(CC(N)(CO)CO)CC2` [Example 61, 2-Amino-2-((7-(1-admantyl)-6-isopropoxy-3,4-dihydroisoquinolin-2(1H)-yl)methyl)propane-1,3-diol]: half-maximal inhibition in assay [1] (IC50) required 3.27 ± 0.12 µM.

In the case of `NC(CO)(CO)CN1CCc2cc(OCc3cccc(F)c3)ccc2C1` [Example 37, 2-Amino-2-((6-(3-fluorobenzyloxy)-3,4-dihydroisoquinolin-2(1H)-yl)methyl)propane-1,3-diol], it took 26.9 ± 9.16 µM to reach half-maximal inhibition in assay [1] (Homo sapiens) (IC50).

Consider `NC(CO)(CO)CN1CCc2cc(OCc3ccc(-c4ccccc4C(F)(F)F)cc3)ccc2C1` [Example 39, 2-Amino-2-((6-((2′-(trifluoromethyl)biphenyl-4-yl)methoxy)-3,4-dihydroisoquinolin-2(1H)-yl)methyl)propane-1,3-diol], for which, at S1P1 human receptor, the EC50 is above 3.24 µM, the “Efficacy (% of maximum)” value came to 117% and the EC50S1P1/EC50S1P is above 1000.

With `CCOc1ccc(-c2nc(-c3cccc4c3CCN4CC(N)(CO)CO)no2)cc1OC` [Example 55, 2-Amino-2-((4-(5-(4-ethoxy-3-methoxyphenyl)-1,2,4-oxadiazol-3-yl)indolin-1-yl)methyl)propane-1,3-diol], on S1P1 human receptor, a half-maximal effect (EC50) was put at 0.0316 µM, the “Efficacy (% of maximum)” value was determined as 101% and the EC50S1P1/EC50S1P is 2.56.

`COc1ccc(CCc2ccc(CCC(N)(CO)CO)cc2)cc1C12CC3CC(CC(C3)C1)C2` [Example 26, 2-Amino-2-(4-(3-(1-admantanyl-4-methoxyphenethyl)phenethyl)propane-1,3-diol hydrochloride salt] yielded an IC50 in assay [1] of 2.29 ± 0.57 µM.

The compound `COc1cc(CCc2ccc3c(c2)CCN3CC(N)(CO)CO)cc(OC)c1OC` [Example 6, 2-Amino-2-((5-(3,4,5-trimethoxyphenethyl)indolin-1-yl)methyl)propane-1,3-diol] showed a half-inhibitory concentration (IC50) in assay [1] (Homo sapiens) of 44.9 ± 8.85 µM.

In turn, `CC(C)Oc1ccc(CCN(C)CC(N)(CO)CO)cc1C12CC3CC(CC(C3)C1)C2` [Example 60, 2-Amino-2-(((3-(1-admantyl)-4-isopropoxyphenethyl)(methyl)amino)methyl)propane-1,3-diol] came in with a half-maximal inhibitory concentration (IC50) in assay [1] of 3.3 ± 0.26 µM.
